Laboratory results reported in the supplement of paper PMC11451515.

Assays:
Settings in all cases: 48 h
NOMO1 [1] = experiment: cell viability relative to DMSO control; higher = less cytotoxic
Outline: (§1)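 Library compounds in DMSO were pin-dosed in an 11-point threefold series (47 μM to 0.79 nM) onto leukemia cells in 1536-well plates (5 μl). Plates held 500 cells/well of NOMO1 or SEM or 1000 cells/well of P12-Ichikawa, each adapted for at least four passages in each medium. Luminescence was read with CellTiter-Glo One after 48 h at 37°C. Viability means the per-plate percentage relative to DMSO wells, using cell-free wells as background.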

P12-Ichikawa [2] = experiment: as above
Outline: as §1

SEM cells [3] = experiment: as above
Outline: as §1

NOMO1 [4] = experiment: AUC of viability dose-response curve (% viability x log10 dose units); higher = less sensitive
Outline: (§2)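 Over 48 h at 37°C, leukemia cells in 1536-well plates (500 or 1000 cells/well), adapted to each medium, received library compounds in DMSO at 11 threefold doses from 47 μM to 0.79 nM. CellTiter-Glo One luminescence, normalised per plate to DMSO and cell-free wells, was fitted by a four-parameter log-logistic function of log10 dose. The area under the curve was then integrated by trapezoidal rule, after scaling curves above full viability and removing those that failed quality control.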

P12-Ichikawa [5] = experiment: as above
Outline: as §2

SEM cells [6] = experiment: as above
Outline: as §2

CC(=O)OC[C@H]1O[C@@H]([S-])[C@H](OC(C)=O)[C@@H](OC(C)=O)[C@@H]1OC(C)=O.CCP(CC)CC.[Au+]
cell viability [%]
Settings	NOMO1 [1]	P12-Ichikawa [2]	SEM cells [3]
HPLM + 10% dialyzed FBS, 0.000781 µM	80.7	89.2	73.4
HPLM + 10% dialyzed FBS, 0.00234 µM	84.3	88.1	72.8
HPLM + 10% dialyzed FBS, 0.00702 µM	96.5	91.2	68.7
HPLM + 10% dialyzed FBS, 0.0211 µM	92	99.2	82.1
HPLM + 10% dialyzed FBS, 0.0632 µM	75.9	94.1	73.6
HPLM + 10% dialyzed FBS, 0.19 µM	93.7	102	97.6
HPLM + 10% dialyzed FBS, 0.569 µM	96.7	98.6	84
HPLM + 10% dialyzed FBS, 1.71 µM	93.8	94.5	83.1
HPLM + 10% dialyzed FBS, 5.12 µM	31.5	71.7	15.9
HPLM + 10% dialyzed FBS, 15.4 µM	7.92	6.24	6.62
HPLM + 10% dialyzed FBS, 46.1 µM	5.33	6.03	6.21
RPMI 5 mM glucose + 10% FBS, 0.000781 µM	86.7	86.8	91.1
RPMI 5 mM glucose + 10% FBS, 0.00234 µM	99.2	89.2	75
RPMI 5 mM glucose + 10% FBS, 0.00702 µM	85.4	90.6	87.3
RPMI 5 mM glucose + 10% FBS, 0.0211 µM	96.4	93.1	84.8
RPMI 5 mM glucose + 10% FBS, 0.0632 µM	98.4	82.2	77.8
RPMI 5 mM glucose + 10% FBS, 0.19 µM	104	90.6	105
RPMI 5 mM glucose + 10% FBS, 0.569 µM	106	93.4	101
RPMI 5 mM glucose + 10% FBS, 1.71 µM	89.8	89.3	88.5
RPMI 5 mM glucose + 10% FBS, 5.12 µM	18.8	14.8	6.02
RPMI 5 mM glucose + 10% FBS, 15.4 µM	6.15	5.1	6.28
RPMI 5 mM glucose + 10% FBS, 46.1 µM	5	4.94	5.83
RPMI 5 mM glucose + 10% dialyzed FBS, 0.000781 µM	88.3	87.8	78.4
RPMI 5 mM glucose + 10% dialyzed FBS, 0.00234 µM	96.7	84.1	85.1
RPMI 5 mM glucose + 10% dialyzed FBS, 0.00702 µM	90.5	81.6	78.6
RPMI 5 mM glucose + 10% dialyzed FBS, 0.0211 µM	96.2	92.7	80.1
RPMI 5 mM glucose + 10% dialyzed FBS, 0.0632 µM	91.7	79.7	77.6
RPMI 5 mM glucose + 10% dialyzed FBS, 0.19 µM	94.5	87.6	87.2
RPMI 5 mM glucose + 10% dialyzed FBS, 0.569 µM	95.4	91.9	84.5
RPMI 5 mM glucose + 10% dialyzed FBS, 1.71 µM	88.7	78.2	69.4
RPMI 5 mM glucose + 10% dialyzed FBS, 5.12 µM	40.8	6.72	7.37
RPMI 5 mM glucose + 10% dialyzed FBS, 15.4 µM	5.52	5.18	6.42
RPMI 5 mM glucose + 10% dialyzed FBS, 46.1 µM	4.43	5.56	5.84

Cl.Cl.Clc1ccc(Nc2nnc(Cc3ccncc3)c3ccccc23)cc1
AUC of viability dose-response curve
Settings	NOMO1 [4]	P12-Ichikawa [5]	SEM cells [6]
HPLM + 10% dialyzed FBS	448	442	449
RPMI 5 mM glucose + 10% FBS	469	472	446
RPMI 5 mM glucose + 10% dialyzed FBS	460	446	357

C/C(=N\NC(=S)N1CCC1)c1ccccn1
cell viability [%]
Settings	NOMO1 [1]	P12-Ichikawa [2]	SEM cells [3]
HPLM + 10% dialyzed FBS, 0.000781 µM	104	105	98.2
HPLM + 10% dialyzed FBS, 0.00234 µM	76.1	92.4	65.1
HPLM + 10% dialyzed FBS, 0.00702 µM	48.5	47.6	24
HPLM + 10% dialyzed FBS, 0.0211 µM	29.9	29.3	16.3
HPLM + 10% dialyzed FBS, 0.0632 µM	20.8	12	8.49
HPLM + 10% dialyzed FBS, 0.19 µM	6.85	8.28	7
HPLM + 10% dialyzed FBS, 0.569 µM	5.67	5.61	6.15
HPLM + 10% dialyzed FBS, 1.71 µM	4.05	10.9	4.65
HPLM + 10% dialyzed FBS, 5.12 µM	2.98	8.16	3.75
HPLM + 10% dialyzed FBS, 15.4 µM	15.2	1.94	2.98
HPLM + 10% dialyzed FBS, 46.1 µM	5.74	20.3	4.69
RPMI 5 mM glucose + 10% FBS, 0.000781 µM	107	110	102
RPMI 5 mM glucose + 10% FBS, 0.00234 µM	96.5	96.3	77.1
RPMI 5 mM glucose + 10% FBS, 0.00702 µM	74.6	57.6	23.7
RPMI 5 mM glucose + 10% FBS, 0.0211 µM	15.3	22.7	12.9
RPMI 5 mM glucose + 10% FBS, 0.0632 µM	13	10.4	6.82
RPMI 5 mM glucose + 10% FBS, 0.19 µM	7.95	8.95	6.63
RPMI 5 mM glucose + 10% FBS, 0.569 µM	6.53	8.33	5.22
RPMI 5 mM glucose + 10% FBS, 1.71 µM	8.3	6.64	3.59
RPMI 5 mM glucose + 10% FBS, 5.12 µM	2.84	5.66	2.32
RPMI 5 mM glucose + 10% FBS, 15.4 µM	13.7	-0.453	1.6
RPMI 5 mM glucose + 10% FBS, 46.1 µM	11.8	9.21	3.57
RPMI 5 mM glucose + 10% dialyzed FBS, 0.000781 µM	99.3	117	110
RPMI 5 mM glucose + 10% dialyzed FBS, 0.00234 µM	93.6	107	53.4
RPMI 5 mM glucose + 10% dialyzed FBS, 0.00702 µM	37.7	64.9	19.2
RPMI 5 mM glucose + 10% dialyzed FBS, 0.0211 µM	19.6	29.8	15.8
RPMI 5 mM glucose + 10% dialyzed FBS, 0.0632 µM	17.9	12.9	6.49
RPMI 5 mM glucose + 10% dialyzed FBS, 0.19 µM	8.08	9.03	6.19
RPMI 5 mM glucose + 10% dialyzed FBS, 0.569 µM	6.69	6.61	5.7
RPMI 5 mM glucose + 10% dialyzed FBS, 1.71 µM	5.23	6.04	4.26
RPMI 5 mM glucose + 10% dialyzed FBS, 5.12 µM	2.95	3.26	3.13
RPMI 5 mM glucose + 10% dialyzed FBS, 15.4 µM	8.3	-0.0472	1.84
RPMI 5 mM glucose + 10% dialyzed FBS, 46.1 µM	13.1	8.99	2.93

AUC of viability dose-response curve
Settings	HPLM + 10% dialyzed FBS	RPMI 5 mM glucose + 10% FBS	RPMI 5 mM glucose + 10% dialyzed FBS
NOMO1 [4]	122	140	121
P12-Ichikawa [5]	127	120	122

CC(=O)c1cnc2ccc(-c3cc(Cl)c(O)c(Cl)c3)nc2c1N[C@H]1CC[C@H](CN(C)C)CC1
SEM cells [3], HPLM + 10% dialyzed FBS
Settings	cell viability [%]
0.000781 µM	110
0.00234 µM	101
0.00702 µM	105
0.0211 µM	99.2
0.0632 µM	63.5
0.19 µM	25.4
0.569 µM	16.2
1.71 µM	6.2
5.12 µM	6.52
15.4 µM	5.71
46.1 µM	6.59

AUC of viability dose-response curve
Settings	NOMO1 [4]	P12-Ichikawa [5]	SEM cells [6]
HPLM + 10% dialyzed FBS	211	277	218
RPMI 5 mM glucose + 10% FBS	237	256	213
RPMI 5 mM glucose + 10% dialyzed FBS	237	253	208
